Biological target: 2-acylglycerol O-acyltransferase 2 (Homo sapiens, UniProt Q3SYC2)
Assay: LCMS Assay
Conditions: pH 7.4; 65 °C
Experimental: The MGAT enzyme reactions were performed in Corning FALCON® 96-well Polypropylene plates, in a total volume of 60 μL of 50 mM Potassium Phosphate buffer pH 7.4, containing a final concentration of 100 μM 2-oleoylglycerol, 15 μM oleoyl-Coenzyme A and 0.0013 μg/μL Human or Mouse MGAT-2 or 0.0026 μg/μL Rat recombinant MGAT-2 membranes expressed in Sf9 cells. Assay plates were run through a fully automated robotics system and shaken for 5 seconds every minute for a total 10 minutes. The reactions were then quenched with 120 μL of ice cold methanol containing 1 μg/mL 1,2-distearoyl-rac-glycerol as the internal standard. Plates were shaken for 2 minutes and spun down to remove protein precipitation. After the spin, samples were transferred to LC/MS compatible PCR plates. For LC/MS analysis, a ThermoFisher Surveyor pump, utilizing a Waters Symmetry C8, 50×2.1 mm column, was used for the chromatography of enzyme products. The buffer system consists of 0.1% formic acid in water with a mobile phase consisting 0.1% formic acid in methanol. The shallow gradient is 90-100% mobile phase in 0.2 min with a total run time of 2.3 min. The first 0.5 minutes of each injection was diverted to waste to eliminate the presence of Phosphate buffer in the enzymatic reaction. The column was run at 0.6 mL/min and a temperature of 65° C.

Sequence of 2-acylglycerol O-acyltransferase 2 (Q3SYC2 whole entry): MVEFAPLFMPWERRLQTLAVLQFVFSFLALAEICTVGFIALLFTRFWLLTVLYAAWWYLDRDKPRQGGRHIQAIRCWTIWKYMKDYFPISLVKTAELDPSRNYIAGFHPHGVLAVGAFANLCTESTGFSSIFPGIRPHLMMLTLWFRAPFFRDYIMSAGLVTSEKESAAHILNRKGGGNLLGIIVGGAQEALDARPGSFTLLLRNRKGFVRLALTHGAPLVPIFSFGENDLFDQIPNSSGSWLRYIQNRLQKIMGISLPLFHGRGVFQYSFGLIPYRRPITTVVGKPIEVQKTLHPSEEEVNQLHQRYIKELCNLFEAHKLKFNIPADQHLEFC

| SMILES | IC50 [nM] |
| --- | --- |
| CC(C)(C)n1ccc(C2=C(C(=O)NS(=O)(=O)C3CC3)C(=O)N[C@@](c3ccc(OCCCCCC(F)(F)F)cc3)(C(F)(F)F)C2)n1 [US9365558, 80] | 40 |
| Cc1ccc(C2=C(C(=O)NS(=O)(=O)N(C)C)C(=O)N[C@@](c3ccc(OCCCC(F)(F)F)cc3)(C(F)(F)F)C2)cc1 [US9365558, 31] | 38 |

Reference: BindingDB's records for patent US9365558 (Bristol Myers Squibb, 2016)
